Here are results for four molecules from patent publication US20070203215A1, “Methods & Compositions For Enhancing Pharmaceutical Treatments” (Taiji Biomedical, Inc., priority 1999, published 2007).

Series [1] in a line: Enhancement of the oral bioavailability of paclitaxel and docetaxel in rats. To be noted: male, Sprague-Dawley, rat, plasma, 10 mg/kg, Drug alone (10 mg/kg) oral; for AUC(0-t): read-out: AUC0-8. The class given is in vivo. The method, then: In a further example, separate groups of eight male Sprague-Dawley rats (250-300 g body weight) with cannulae inserted into the jugular vein were purchased from Harlan-Sprague Dawley (Madison, Wis.). Animals were allowed free movement and access to water but were fasted for at least 8 h prior to the dose until study completion. […] Immediately prior to administration the mixture was diluted in saline to provide a paclitaxel or docetaxel concentration of 1mg/ml. Animals were then administered 10 μl/g body weight by oral gavage.
Serial blood samples (500 μl) were drawn prior to each dose (time 0) and at 0.5, 1, 2, 3, 4, 6 and 8 h through a cannula inserted into the jugular vein. The blood was collected into Microtainer® tubes containing EDTA anticoagulant. Whole blood was centrifuged under refrigeration at 2800 rpm for 10-20 minutes. Plasma samples were stored at −20° C. until analysis using a validated HPLC-MS method. Maximum plasma paclitaxel concentration (Cmax) and time to achieve this concentration (Tmax) were measured from concentration vs. time profiles. Area under the concentration vs. time curve from 0-8 hours (AUC0-8) was calculated using the linear and log trapezoidal methods in the rising and declining phases of the concentration vs. time curve respectively.

Series [2] in a line: Blood-brain barrier penetration of loperamide, mouse hot-plate test. In kind it is in vivo, mice. To be noted: loperamide alone, i.v. 1-16 mg/kg. The text has this: These increases were dose dependent with respect to loperamide.
The conditions of series [3]: single agent + vehicle; paclitaxel 24 mg/kg i.v. Q5D x6 + 36 mg/kg i.v. Q5D x2; Formula 2 compound 30 mg/kg p.o. afternoon before and BID day of treatments. As to the method:
Non-tumor bearing athymic mice were treated with the compound of Formula 2 and (or) paclitaxel as described.

The test system of another series is MDA/LCC6^MDR1 tumors. The series can be described thus: In vivo antitumor efficacy, orthotopic MDA/LCC6^MDR1 tumors. The following applies: single agent alone; paclitaxel 12 mg/kg i.v.; Formula 2 free base 30 mg/kg p.o. More on the design: species or system SCID/RAG2 mice. As to the method: Anti-tumor efficacy experiments with orthotopic MDA/LCC6 and MDA/LCC6^MDR1 tumors were conducted in female SCID/RAG2 mice. Ascites propagated cells (2×10^6 in 50 μl) were injected into mammary fat pads bilaterally on day 0 before randomization into groups of 5 mice per group. Paclitaxel (12 mg/kg/dose) was administered QD i.v. (tail vein) in 200 μl saline/Cremophor/ethanol (8/1/1 by volume) on days 5, 12, 19, and 26. The compound of Formula 2-free base (30 mg/kg/dose) was administered BID p.o. by gavage in 100 μl PEG 400/Tween 20 (9/1 by volume) on days 4-6, 11-13, 18-20, and 25-27. Mean body weights were recorded at least every other day. Tumor weight was monitored approximately every other day by caliper measurements and calculated according to the formula (Tumor weight =(length×width^2)÷2). This conversion formula was verified by comparing the calculation derived tumor weights to excised and weighed tumors. Animals bearing ulcerated tumors or where tumor weight exceeded 10% of the animal's body weight were terminated. The weights of the bilateral tumors were averaged for each mouse and mean tumor weights for each treatment group±standard error of the mean were calculated. Statistical analysis was carried out by Mann-Whitney test using GraphPad Prism software (San Diego, Calif.).
The compound of Formula 2 was administered the afternoon before, 2 hours before and 6 hours after each paclitaxel dose. The ability of orally administered Formula 2 compound to reverse MDR in solid tumors in vivo was assessed with the MDA/LCC6^MDR1 model. Because the compound of Formula 2 produced no effect on paditaxel blood levels, focus on up-front therapy (for naive animals) or minimal residual disease models was maintained, as opposed to established tumors. MDA/LCC6^MDR1 cells that express P-gp were resistant to paclitaxel treatment in vitro and this resistance was reversed by the compound of Formula 2 (FIG. 1). […] Similar results were obtained in three independent experiments with two different strains of immunocompromised mice (SCID/RAG-2 and athymic). […]

Series [4] can be described thus: Oral paclitaxel bioavailability enhancement in rats (mesylate salt). In kind it is in vivo. The following applies: male, Sprague Dawley, rat, plasma, Group 2: paclitaxel 40 mg/kg p.o. + vehicle. As to the method: A total of 21 male Sprague Dawley rats were used. Animals were approximately 8 weeks of age at arrival and weighed ca 327-359 g.
Following analysis of paclitaxel, all remaining plasma were tested for a determination of the Formula 2 compound concentration.
Plasma samples were analyzed for unchanged paclitaxel using a liquid chromatography/mass spectroscopy (“LC/MS”) assay. […] The highest observable concentration was used as the peak concentration (Cmax). Time to Cmax was denoted as Tmax. […] The area under the plasma concentration curve extrapolated to infinity (AUC(I)) was calculated as the sum of AUC(0-t) plus the ratio of the last plasma concentration to the elimination rate constant. The terminal elimination constant (K) was calculated from the last 3 non-zero points of the log-linear regression. Half-life (tot) was determined by dividing 0.693 by K. The apparent plasma clearance (CL/F) was calculated for paclitaxel by dividing the nominal dose administered by AUC(I). […] Where values were below the limit of quantification, zero was used for pharmacokinetic analysis. Statistical analysis consisted of a Student-T-test with Two-sample unequal variance approximation and was performed on AUC90-t) and Cmax values to compare the Formula 2 compound treated animals vs. the corresponding vehicle treated animals.

In a further series the test system is tumor-bearing mice. To be noted: 20 mg/kg paclitaxel alone once per week.
A short description of series [5]: Saquinavir in rat cerebrospinal fluid and brain after oral ONT-093 or vehicle. In kind it is in vivo, Sprague Dawley rats. The following applies: Group 4: after vehicle, 30 min after saquinavir dose, individual animals 4001-4004.
Experimental: Blood samples (ca 0.3 mL) were collected from 8 selected rats by jugular venipuncture during slight anesthesia pre-dose and at 0.25, 0.5, 1, 2, 4 and 8 post-dose (saquinavir dose). Cerebrospinal fluid (CSF) and brain tissue were collected terminally from the remaining 8 rats at ca 30 min following administration of the dose of saquinavir. Blood samples were collected into tubes containing EDTA and placed on wet ice pending centrifugation. Plasma, CSF and brain tissue samples were stored at ca −80° C. until analysis of saquinavir by LC/MS. The vehicle used was polyethylene glycol (PEG-400)1 Tween 20 (9:1; v:v).
A total of 16 male Sprague Dawley rats were received from Charles River Canada (Saint-Constant, Quebec). Animals were approximately 9 weeks of age at arrival and weighed ca 312-340 g. Four males were randomly assigned to each of Groups 1, 2, 3 and 4. On the day of dosing and following an overnight fast, animals were weighed (ca 305-323 g) and were administered their respective combination of doses. Animals of Groups 1 and 3 received a single oral dose of ONT-093 (20 mg/kg) by gavage at a dose volume of 2 mL/kg. Animals of Groups 2 and 4 received a single oral dose of the vehicle by gavage at a dose volume of 2 mL/kg. Approximately 30 min following administration of either ONT-093 or the vehicle, all animals received a single oral dose of saquinavir (20 mg/kg) by gavage at a dose volume of 1 mL/kg.
Following administration of saquinavir, blood samples (ca 0.3 mL in EDTA) were obtained from all rats of Groups 1 and 2 by jugular venipuncture during anesthesia with isoflurane (Ohmeda Pharmaceutical Products) at each of the following time-points: pre-dose (prior to administration of ONT-093 or vehicle) and 0.25, 0.5, 1, 2, 4 and 8 hr post-dose. Following administration of saquinavir, CSF was obtained from all animals of Groups 3 and 4 at 30 min following dose administration. CSF was collected (in tubes containing no anticoagulant) from the cistema magna during anesthesia with isoflurane. Following CSF collection, the animals were sacrificed by exsanguination via puncture of the vena cava and the brain was harvested from all these rats. Immediately following collection, all samples (blood, CSF and brain) were placed on ice until further processing or storage. Blood samples were centrifuged (ca 3080 g at ca 4° C. for 10 min) and the resulting plasma samples were stored at ca −80° C. pending analysis. CSF samples and brains were stored at ca −80° C. pending analysis.
Plasma samples, CSF samples and brains were analyzed for unchanged saquinavir using an LC/MS assay. Pharmacokinetic analysis was performed on plasma concentrations using the PhAST Software Program, Version 2.2-00 (Phoenix International Life Sciences Inc.). The highest observable concentration was assumed to be the peak concentration (Cmax); Time to Cmax was denoted Tmax. The area under the plasma concentration versus time-curve from time zero to the last measurable concentration [AUC(tf] was calculated by the linear trapezoidal method. Where applicable, numerical values were subjected to calculation of group means and % CV. Student-T-test with Satterthwaite approximation was performed on AUC and Cmax values to compare ONT-093 treated animals versus vehicle treated animals using SAS software program, Version 6.12 (SAS Institute Inc., Gary, N.C.). Where values were below limit of quantification, zero was used for pharmacokinetic analysis. The bioavailability (F) of saquinavir when administered with ONT-093 was calculated relative to the AUC values obtained from the animals receiving saquinavir following administration of the vehicle.
A short description of series [6]: Clinical signs after saquinavir dose. In kind it is in vivo, Sprague Dawley rats. The method, then: This clinical sign was no longer observable approximately 30 to 60 min after it was first observed.
A further series can be described thus: in vivo. The following applies: male, Sprague Dawley, rat; for concentration at 2 hr: 2 hr Post-Dose.

Values joined by “and” are separate entries in the source; they are usually repeats but may differ in a detail not shown here. Identical values can stand only once.

For the molecule `CC(=O)O[C@@]12CO[C@@H]1C[C@H](O)[C@@]1(C)C(=O)[C@H](O)C3=C(C)[C@@H](OC(=O)[C@H](O)[C@@H](NC(=O)OC(C)(C)C)c4ccccc4)C[C@@](O)([C@@H](OC(=O)c4ccccc4)[C@H]21)C3(C)C` [Docetaxel], in series [1] (control of the OCFB series), the Cmax stood at 37 ng/mL and the AUC(0-t) is 32 ng·h/mL. In series [1] (control of the OCM series), the Cmax worked out at 30 ng/mL and the AUC(0-t) was found to be 69 ng·h/mL.

In the case of `CN(C)C(=O)C(CCN1CCC(O)(c2ccc(Cl)cc2)CC1)(c1ccccc1)c1ccccc1` [Loperamide], the “Effect on mouse hot-plate escape time” value in series [2] is “no effect”.

With `CC(=O)O[C@H]1C(=O)[C@@]2(C)[C@H]([C@H](OC(=O)c3ccccc3)[C@]3(O)C[C@H](OC(=O)[C@H](O)[C@@H](NC(=O)c4ccccc4)c4ccccc4)C(C)=C1C3(C)C)[C@]1(OC(C)=O)CO[C@@H]1C[C@@H]2O` [Paclitaxel], in series [3], the Survival is 0/4. The “In vivo tumor growth compared to the vehicle control” value with MDA/LCC6^MDR1 tumors is listed as “no significant effect”. For the same molecule, the figures for the AUC(0-t) in series [4], in series [1] (control of the OCFB series) and in [1] (control of the OCM series) were 67 ng·h/mL, 266 ng·h/mL and 189 ng·h/mL, respectively. In series [4] (read-out: Paclitaxel mean terminal phase half-life (t1/2) (converted)), the half-life is 3.9 h. In addition, the maximum concentration (Cmax) was found to be 99 ng/mL in series [1] (control of the OCFB series) and 75 ng/mL in series [1] (control of the OCM series). Besides, the Lethality in the series with tumor-bearing mice worked out at 50%. The “Tumor growth / tumor formation” value in the series on tumor-bearing mice is “significantly inhibited tumor growth, but did not completely prevent tumor formation at any injection site”.

Take `CC(C)(C)NC(=O)[C@@H]1C[C@@H]2CCCC[C@@H]2CN1C[C@@H](O)[C@H](Cc1ccccc1)NC(=O)[C@H](CC(N)=O)NC(=O)c1ccc2ccccc2n1` [Saquinavir]: in [5], the “Saquinavir Concentration in Brain” value was “BLQ (3×) and 1.40 ng/mL”; the “Saquinavir Concentration in CSF” value is reported as “BLQ”. In series [5] (male, Sprague Dawley, rat, brain, oral, 20 mg/kg), this molecule displayed a concentration at 30 min of 1.4 ng/mL. Further, the “Rats with slight salivation immediately following the saquinavir dose” value (“Rats” below) in series [6] (Group 1 (ONT-093 pretreatment)) was 3 of 4. In addition, the “Rats” value in [6] (Group 2 (vehicle pretreatment)) is 2 of 4. Besides, the “Rats” value in [6] (Group 3 (ONT-093 pretreatment)) was 3 of 4. For the same molecule, the “Rats” value in [6] (Group 4 (vehicle pretreatment)) was 4 of 4. The molecule also yielded a concentration at 0.25 hr in “in vivo” (Concentration of Saquinavir in plasma, 0.25 hr Post-Dose, Mean) of 84.6 ng/mL. This molecule also came in with a concentration at 0.5 hr in the series “in vivo” (Concentration of Saquinavir in plasma, 0.5 hr Post-Dose, Mean) of 72.5 ng/mL. This molecule also had a concentration at 1 hr in the series “in vivo” (Concentration of Saquinavir in plasma, 1 hr Post-Dose, Mean) of 99.5 ng/mL. Also, the concentration at 2 hr in the series “in vivo” (Concentration of Saquinavir in plasma) worked out at 205 ng/mL. In “in vivo” (Concentration of Saquinavir in plasma, Mean), this molecule came in with a concentration at 2 hr of 157 ng/mL. The molecule further showed a concentration at 4 hr in the series “in vivo” (Concentration of Saquinavir in plasma, 4 hr Post-Dose, Mean) of 48.5 ng/mL. Also, the concentration at 8 hr in the series “in vivo” (Concentration of Saquinavir in plasma, 8 hr Post-Dose, Mean) was determined as 4.92 ng/mL. Moreover, in the series “in vivo” (po, 20 mg/kg), the total exposure AUC(0-inf) was determined as 524 ng·h/mL, the AUC(0-t) stood at 514 ng·h/mL, the CL/F is 654 mL/min/kg and the highest level (Cmax) was 181 ng/mL. For the same molecule, in the series “in vivo” (po, 20 mg/kg), the Tmax is 1.6 h.
